Values after ≈ are worked out from the molar mass of the structure shown.
Tests used:
[1] = test system: Trichophyton rubrum KD-1130; test: Antifungal activity evaluation test: minimum inhibitory concentration (MIC), broth dilution by reference to CLSI M38-A2; type: cell-based; conditions: KD1130, read-out: MIC (T. rubrum)
In short: (§1)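 MIC read visually as lowest concentration inhibiting growth by at least 80% relative to control after 4 days at 35° C. Trichophyton strains inoculated at 2×10^3 cells/mL final in MOPS-buffered RPMI 1640 (pH 7.0); compounds as 2-fold DMSO series, CLSI M38-A2 basis.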

[2] = test system: Trichophyton mentagrophytes SM-110; test: as above; type: cell-based; conditions: SM110, read-out: MIC (T. menta.)
In short: as §1

Compound | MIC [1] [µg/mL] | MIC [2] [µg/mL]
COCC(F)(F)c1ccc(Oc2ncccc2-c2ccc(F)cc2OC)cn1 [I-161, 2-{[6-(1,1-difluoro-2-methoxyethyl)pyridin-3-yl]oxy}-3-(4-fluoro-2-methoxyphenyl)pyridine] | ≤ 0.1 | ≤ 0.1
COc1ccncc1-c1cccnc1Oc1ccc(C#C[Si](C)(C)C)cc1 [I-259, 4′-methoxy-2-{4-[(trimethylsilyl)ethynyl]phenoxy}-3,3′-bipyridine] | 0.2 to 0.78 (≈ 0.534 to 2.08 µM) | 0.2 to 0.78 (≈ 0.534 to 2.08 µM)
Cc1cc(Oc2ncccc2-c2cccc3ccnn23)ccc1C(F)F [I-462] | ≤ 0.1 | ≤ 0.1
COc1cc(F)ccc1-c1cccnc1Oc1ccc(C2CC2)nc1 [I-129, 2-[(6-cyclopropylpyridin-3-yl)oxy]-3-(4-fluoro-2-methoxyphenyl)pyridine] | ≤ 0.1 | ≤ 0.1
Fc1cccc(F)c1-c1cccnc1Oc1ccc(C(F)(F)F)nc1 [I-6, 3-(2,6-difluorophenyl)-2-{[6-(trifluoromethyl)pyridin-3-yl]oxy}pyridine] | ≤ 0.1 | ≤ 0.1
COc1cc(-c2cccnc2Oc2ccc(C(F)F)nc2)c(F)cc1F [I-77, 3-(2,4-difluoro-5-methoxyphenyl)-2-{[6-(difluoromethyl)pyridin-3-yl]oxy}pyridine] | ≤ 0.1 | ≤ 0.1
COc1ccc(F)cc1-c1cccnc1Oc1cnc(C(F)F)c(C)c1 [I-122, 2-(difluoromethyl)-5-{[3-(5-fluoro-2-methoxyphenyl)pyridin-2-yl]oxy}-3-methylpyridine] | ≤ 0.1 | ≤ 0.1
COCC(C)(C)c1ccc(Oc2ncccc2-c2cnccc2OC)cc1 [I-275, 4′-methoxy-2-[4-(1-methoxy-2-methylpropan-2-yl)phenoxy]-3,3′-bipyridine] | 0.2 to 0.78 (≈ 0.549 to 2.14 µM) | 0.2 to 0.78 (≈ 0.549 to 2.14 µM)
Cc1noc(-c2ccc(Oc3ncccc3-c3cnccc3C)cc2)n1 [I-421] | ≤ 0.1 | ≤ 0.1
COc1ncccc1-c1cccnc1Oc1ccc2c(c1)CCCC2=O [I-272, 6-{[2′-methoxy-(3,3-bipyridin)-2-yl]oxy}-3,4-dihydronaphthalen-1(2H)-one] | ≤ 0.1 | ≤ 0.1
Fc1ccccc1-c1cccnc1Oc1ccc(C(F)(F)F)nc1 [I-3, 3-(2-fluorophenyl)-2-{[6-(trifluoromethyl)pyridin-3-yl]oxy}pyridine] | ≤ 0.1 | ≤ 0.1
COCC(F)(F)c1ccc(Oc2ncccc2-c2cccc3ncnn23)cn1 [I-343, 5-(2-{[6-(1,1-difluoro-2-methoxyethyl)pyridin-3-yl]oxy}pyridin-3-yl)-[1,2,4]triazolo[1,5-a]pyridine] | 0.2 to 0.78 (≈ 0.522 to 2.03 µM) | 0.2 to 0.78 (≈ 0.522 to 2.03 µM)
COc1ccncc1-c1cccnc1Oc1ccc(SC)cc1 [I-241, 4′-methoxy-2-[4-(methylthio)phenoxy]-3,3′-bipyridine] | ≤ 0.1 | ≤ 0.1
COc1ncc(F)cc1-c1cccnc1Oc1ccc(C(F)(F)F)cc1 [I-209, 5-fluoro-2-methoxy-2′-[4-(trifluoromethyl)phenoxy]-3,3′-bipyridine] | ≤ 0.1 | ≤ 0.1
CCC(C)c1ccc(Oc2ncccc2-c2cnccc2OC)cc1 (stereo not shown) [I-256, 2-[4-(sec-butyl)phenoxy]-4′-methoxy-3,3′-bipyridine] | ≤ 0.1 | ≤ 0.1
COc1ccccc1-c1cccnc1Oc1ccc(C(F)(F)CN(C)OC)nc1 [I-150, N-[2,2-difluoro-2-(5-{[3-(2-methoxyphenyl)pyridin-2-yl]oxy}pyridin-2-yl)ethyl]-N,O-dimethylhydroxylamine] | ≤ 0.1 | ≤ 0.1
FC(F)(F)c1ccc(Oc2ncccc2-c2cccc3nccnc23)cn1 [I-37, 5-(2-{[6-(trifluoromethyl)pyridin-3-yl]oxy}pyridin-3-yl)quinoxaline] | 0.2 to 0.78 (≈ 0.543 to 2.12 µM) | 0.2 to 0.78 (≈ 0.543 to 2.12 µM)
Cc1ccncc1-c1cccnc1Oc1ccc(C(C)(F)F)cc1F [I-303, 2-[4-(1,1-difluoroethyl)-2-fluorophenoxy]-4′-methyl-3,3′-bipyridine] | ≤ 0.1 | ≤ 0.1
Cc1ccncc1-c1cccnc1Oc1ccc(C(F)(F)F)cc1 [I-206, 4′-methyl-2-[4-(trifluoromethyl)phenoxy]-3,3′-bipyridine] | ≤ 0.1 | ≤ 0.1
COC(=O)CCc1ccc(Oc2ncccc2-c2cccnc2OC)cc1 [I-409] | ≤ 0.1 | ≤ 0.1

Next, values leading:

MIC [1] [µg/mL] | MIC [2] [µg/mL] | Compound
≤ 0.1 | ≤ 0.1 | COc1ccccc1-c1cccnc1Oc1cnc(OCc2ccccc2)nc1 [I-380, 2-(benzyloxy)-5-{[3-(2-methoxyphenyl)pyridin-2-yl]oxy}pyrimidine]
≤ 0.1 | ≤ 0.1 | COc1ccccc1-c1cccnc1Oc1ccc(OCc2cccnc2)nc1 [I-174, 3-(2-methoxyphenyl)pyridin-2-{[6-(pyridin-3-ylmethoxy)pyridin-3-yl]oxy}pyridine]
≤ 0.1 | ≤ 0.1 | CCN(C)c1ncc(Oc2ncccc2-c2ccc(F)cc2OC)cn1 [I-184, N-ethyl-5-{[3-(4-fluoro-2-methoxyphenyl)pyridin-2-yl]oxy}-N-methylpyrimidin-2-amine]
0.2 to 0.78 (≈ 0.583 to 2.27 µM) | 0.2 to 0.78 (≈ 0.583 to 2.27 µM) | COc1ccncc1-c1cccnc1Oc1ccc(C(C)(F)F)nc1 [I-90, 2-{[6-(1,1-difluoroethyl)pyridin-3-yl]oxy}-4′-methoxy-3,3′-bipyridine]
0.2 to 0.78 (≈ 0.555 to 2.16 µM) | 0.2 to 0.78 (≈ 0.555 to 2.16 µM) | COCc1ccccc1-c1cccnc1Oc1ccc(C(F)(F)F)nc1 [I-60]
≤ 0.1 | ≤ 0.1 | COc1ccc(-c2cccnc2Oc2ccc(C(F)F)nc2)c(OC)n1 [I-78, 2′-{[6-(difluoromethyl)pyridin-3-yl]oxy}-2,6-dimethoxy-3,3′-bipyridine]
≤ 0.1 | ≤ 0.1 | COc1ccc(F)cc1-c1cccnc1Oc1ccc(C(C)(F)F)nc1 [I-83, 2-{[6-(1,1-difluoroethyl)pyridin-3-yl]oxy}-3-(5-fluoro-2-methoxyphenyl)pyridine]
≤ 0.1 | ≤ 0.1 | CCc1ccc(Oc2ncccc2-c2cnccc2OC)c(F)c1 [I-394, 2-(4-ethyl-2-fluorophenoxy)-4′-methoxy-3,3′-bipyridine]
≤ 0.1 | ≤ 0.1 | CCc1cc(Oc2ncccc2-c2cnccc2OC)ccc1C [I-264, 2-(3-ethyl-4-methylphenoxy)-4′-methoxy-3,3′-bipyridine]
≤ 0.1 | ≤ 0.1 | CC(F)(F)c1ccc(Oc2ncncc2-c2cccc3c2OCC3)cn1 [I-335, 4-{[6-(1,1-difluoroethyl)pyridin-3-yl]oxy}-5-(2,3-dihydrobenzofuran-7-yl)pyrimidine]
≤ 0.1 | ≤ 0.1 | Cc1cc(-c2ccc(Oc3ncccc3-c3cnccc3C)cc2)on1 [I-425]
0.2 to 0.78 (≈ 0.547 to 2.13 µM) | 0.2 to 0.78 (≈ 0.547 to 2.13 µM) | CC(F)(F)c1ccc(Oc2ncccc2-c2cncc(F)c2Cl)cn1 [I-97, 4′-chloro-2-{[6-(1,1-difluoroethyl)pyridin-3-yl]oxy}-5′-fluoro-3,3′-bipyridine]
≤ 0.1 | ≤ 0.1 | COc1cc(F)ccc1-c1cccnc1Oc1cnc(C(F)F)c(C)c1 [I-121, 2-(difluoromethyl)-5-{[3-(4-fluoro-2-methoxyphenyl)pyridin-2-yl]oxy}-3-methylpyridine]
≤ 0.1 | ≤ 0.1 | COc1ccccc1-c1cccnc1Oc1ccc(C2CC2)nc1 [I-128, 2-[(6-cyclopropylpyridin-3-yl)oxy]-3-(2-methoxyphenyl)pyridine]
≤ 0.1 | ≤ 0.1 | COc1ccccc1-c1cccnc1Oc1cnc(C(F)(F)F)c(C)c1 [I-117, 5-{[3-(2-methoxyphenyl)pyridin-2-yl]oxy}-3-methyl-2-(trifluoromethyl)pyridine]
0.2 to 0.78 (≈ 0.609 to 2.38 µM) | 0.2 to 0.78 (≈ 0.609 to 2.38 µM) | COc1ccccc1-c1cccnc1Oc1ccc(C(F)F)nc1 [I-72, 2-{[6-(difluoromethyl)pyridin-3-yl]oxy}(2-methoxyphenyl)pyridine]
≤ 0.1 | ≤ 0.1 | Cc1cc(Oc2ncccc2-c2cccc3c2OCC3)cnc1C(F)(F)F [I-448]
≤ 0.1 | ≤ 0.1 | COc1ccccc1-c1cccnc1Oc1cnc2c(c1)CCCC2(F)F [I-142, 8,8-difluoro-3-{[3-(2-methoxyphenyl)pyridin-2-yl]oxy}-5,6,7,8-tetrahydroquinoline]
≤ 0.1 | ≤ 0.1 | COc1cccc(Cl)c1-c1cccnc1Cc1ccc(C(F)(F)F)nc1 [I-441]
≤ 0.1 | ≤ 0.1 | CCN(C)c1ccc(Oc2ncccc2-c2ccc(F)cc2OC)cn1 [I-367, N-ethyl-5-{[3-(4-fluoro-2-methoxyphenyl)pyridin-2-yl]oxy}-N-methylpyridin-2-amine]
≤ 0.1 | ≤ 0.1 | CCc1ccccc1-c1cccnc1Oc1ccc(C(F)(F)F)nc1 [I-16, 3-(2-ethylphenyl)-2-{[6-(trifluoromethyl)pyridin-3-yl]oxy}pyridine]
≤ 0.1 | ≤ 0.1 | Cc1cnccc1-c1cccnc1Oc1ccc(C(F)(F)F)cc1 [I-205]
≤ 0.1 | ≤ 0.1 | FC(F)(F)c1ccc(Oc2ncccc2-c2cncc3nccnc23)cc1 [I-227, 8-{2-[4-(trifluoromethyl)phenoxy]pyridin-3-yl}pyrido[3,4-b]pyrazine]
1.56 to 6.25 (≈ 2.94 to 11.8 µM) | 1.56 to 6.25 (≈ 2.94 to 11.8 µM) | COc1ccncc1-c1cccnc1Oc1ccc(C(OS(=O)(=O)c2ccc(C)cc2)C(F)(F)F)cc1 (stereo not shown) [I-248]
≤ 0.1 | ≤ 0.1 | Cc1ccncc1-c1cccnc1Oc1ccc(C(F)(F)CF)cc1 [I-306]
0.2 to 0.78 (≈ 0.46 to 1.8 µM) | ≤ 0.1 | COCCOCC(F)(F)c1ccc(Oc2ncccc2-c2ccc(F)cc2OC)cn1 [I-159, 2-({6-[1,1-difluoro-2-(2-methoxyethoxy)ethyl]pyridin-3-yl}oxy)-3-(4-fluoro-2-methoxyphenyl)pyridine]
≤ 0.1 | ≤ 0.1 | FC(F)(F)c1ccc(Oc2ncccc2-c2cccc3nccnc23)cc1 [I-224, 5-{2-[4-(trifluoromethyl)phenoxy]pyridin-3-yl}quinoxaline]

From patent publication US10647675B2 (priority 2015, dated 2020)
